Measurements published in PMC8318231, “Rate-of-Kill (RoK) assays to triage large compound sets for Chagas disease drug discovery: Application to GSK Chagas Box” (PLoS Neglected Tropical Diseases, 2021).
Like-named read-outs stand apart in the source and are kept apart here.

Experiments:
[1] = tested on: T. cruzi Tulahuen trypomastigotes; assay: T. cruzi trypomastigote assay (Cell Titer-Glo viability, ATP luminescence); assay type: cell-based, Trypanosoma cruzi; conditions: for activity in trypomastigotes assay (in words): 48 and 72 hours; for IC50: Trypanosoma cruzi, TULAHUEN
In short: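 Compounds were tested in dose response or once at a final 5 μM against 5 × 10^4 trypomastigotes per well (DMEM, 2% FBS), collected on days 5–8 from LLC-MK2 infected cultures. ATP luminescence via CellTiter-Glo reports live parasites; DMSO defines 0% and cell-free wells 100% effect.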

[2] = tested on: H9c2 (rat cardiomyocytes); assay: RoK assay, number of host cells nuclei (drug-related cytotoxicity, H9c2 output, Cmin_Tox); conditions: H9c2 host cells
In short: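 Host-cell toxicity is read as DRAQ5-stained nuclei counts from automated confocal imaging of T. cruzi-infected H9c2 cells, tracked across time at each concentration. Cmin_Tox denotes the lowest compound concentration dropping host cell number under 50% of initial cell density.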

Trypanosoma cruzi = conditions: cited from earlier work
[3] = set-up: method as in PMID 25805302; conditions: cited from earlier work
[4] = tested on: T. cruzi intracellular amastigotes in H9c2 cells; assay: RoK combination assay with BNZ; assay type: cell-based, Trypanosoma cruzi; conditions: 50 μM BNZ
Protocol: The assay was performed following the same experimental procedure mentioned above in the RoK assay. The infected H9c2 cells were treated with final 10 and 50 μM concentrations of BNZ and DMSO before being dispensed into the plates containing the compounds. For the combination with 50 μM BNZ, two plates were incubated for 4 and 24 hours respectively before being fixed. For the combinations with 10 μM BNZ and with DMSO, four plates for each condition were incubated for 4, 24, 48 and 72 hours before being fixed.

[5] = 48 h, read-out: Trypomastigotes pIC50 48 hours (converted)
[6] = 72 h, read-out: Trypomastigotes pIC50 72 hours (converted)

CC[C@@H]([C@H](C)O)n1ncn(-c2ccc(N3CCN(c4ccc(OC[C@@H]5CO[C@@](Cn6cncn6)(c6ccc(F)cc6F)C5)cc4)CC3)cc2)c1=O [Posaconazole, reference compound]
activity in trypomastigotes assay (in words) [1]: inactive
IC50 [1, 5]: > 50.1 µM
IC50 [1, 6]: > 50.1 µM
IC50 ([1]; 72 hours, plotted values, censored values given without sign, read-out: 72 pIC50 (trypomastigotes, raw data of Fig 1D) (converted)): > 50.1 µM
IC50 ([1]; trypomastigote assay, 48 h, figure 1A, read-out: 48 pIC50 (converted)): > 50.1 µM
IC50 ([1]; trypomastigote assay, 72 h, figure 1A, read-out: 72 pIC50 (converted)): > 50.1 µM
72 pIC50 ([1]; trypomastigote assay, 72 h, figure 1B): < 4.3
Cmin_Tox [2]: 42.2 µM
curative dose in mice (Trypanosoma cruzi): 20 mg/kg/day

O=C(Cn1ccnc1[N+](=O)[O-])NCc1ccccc1 [Benznidazole, benznidazole, reference compound]
average time to interruption of treatment [3]: 26.7 days
activity in trypomastigotes assay (in words) [1]: active
IC50 [1, 5]: 6.31 µM
IC50 [1, 6]: 5.01 µM
pIC50 versus trypomastigotes ([1]; invariable at the two incubation times tested): 5.3
AM/CELL ([4]; no compound 1, 4 hours): 2.023
AM/CELL ([4]; no compound 1, 24 hours): 1.3207
Cmin_Tox [2]: >50 µM

CN(C)Cc1ccc(N2CCC(NS(=O)(=O)c3ccc(Cl)cc3)CC2)cc1 [TCMDC-143623]
activity in trypomastigotes assay (in words) [1]: poorly active
Trypomastigotes pIC50 48 hours ([1]; 48 hours incubation, pIC50 = -log10 IC50 in molar units): 4.5
Trypomastigotes pIC50 72 hours ([1]; 72 hours incubation, pIC50 = -log10 IC50 in molar units): 4.4
Cmin_Tox [2]: 25.3 µM
